Patent US20250231185A1, “Coronavirus T Cell Epitopes, Megapools and Uses Thereof” (La Jolla Institute for Immunology, priority 2021, published 2025)

tested on: CD8+ T cells; assay: Meta-analysis of published SARS-CoV-2 CD8 T cell epitope data curated in the IEDB (25 studies); type: cell-based, human; settings: CD8-restricted SARS-CoV-2 epitopes; Yes = recognized by 3 or more donors/different studies

For 1220 (RFDNPVLPF) [compound 1220], which Dominant is on record?
The Dominant was “Yes (more dominant epitopes are defined by being recognized by 3 or more donors/different studies)”.

Which Dominant does the source give for 1140 (LLYDANYFL) [compound 1140] here?
The Dominant was “Yes (more dominant epitopes are defined by being recognized by 3 or more donors/different studies)”.

For 1152 (YYQLYSTQL) [compound 1152], which Dominant is on record?
Its Dominant is “Yes (more dominant epitopes are defined by being recognized by 3 or more donors/different studies)”.

With 1229 (FCNDPFLGVYY) [compound 1229] as the substance, how does the Dominant read?
The Dominant was “Yes (more dominant epitopes are defined by being recognized by 3 or more donors/different studies)”.

With 1258 (LLALHRSYL) [compound 1258] as the substance, how does the Dominant read?
Its Dominant is “Yes (more dominant epitopes are defined by being recognized by 3 or more donors/different studies)”.

Which Dominant does the source give for 1176 (KLFIRQEEV) [compound 1176] here?
The Dominant was “Yes (more dominant epitopes are defined by being recognized by 3 or more donors/different studies)”.

For 1266 (YLQPRTFLL) [compound 1266], which Dominant is on record?
The Dominant was “Yes (more dominant epitopes are defined by being recognized by 3 or more donors/different studies)”.

Which Dominant does the source give for 1233 (KSWMESEFRVY) [compound 1233] here?
Its Dominant is “Yes (more dominant epitopes are defined by being recognized by 3 or more donors/different studies)”.

For 1190 (KLGSLVVRC) [compound 1190], which Dominant is on record?
Its Dominant is “Yes (more dominant epitopes are defined by being recognized by 3 or more donors/different studies)”.

With 1192 (LEYHDVRVVL) [compound 1192] as the substance, how does the Dominant read?
The Dominant was “Yes (more dominant epitopes are defined by being recognized by 3 or more donors/different studies)”.

For 1212 (STQDLFLPFF) [compound 1212], which Dominant is on record?
Its Dominant is “Yes (more dominant epitopes are defined by being recognized by 3 or more donors/different studies)”.

With 1225 (GVYFASTEK) [compound 1225] as the substance, how does the Dominant read?
Its Dominant is “Yes (more dominant epitopes are defined by being recognized by 3 or more donors/different studies)”.

Which Dominant does the source give for 1133 (VYFLQSINF) [compound 1133] here?
Its Dominant is “Yes (more dominant epitopes are defined by being recognized by 3 or more donors/different studies)”.

For 1105 (RIFTIGTVTLK) [compound 1105], which Dominant is on record?
Its Dominant is “Yes (more dominant epitopes are defined by being recognized by 3 or more donors/different studies)”.

Which Dominant does the source give for 1117 (ITLKKRWQLAL) [compound 1117] here?
Its Dominant is “Yes (more dominant epitopes are defined by being recognized by 3 or more donors/different studies)”.

Which Dominant does the source give for 1178 (VQELYSPIFLIV) [compound 1178] here?
Its Dominant is “Yes (more dominant epitopes are defined by being recognized by 3 or more donors/different studies)”.

Which Dominant does the source give for 1226 (TEKSNIIRGW) [compound 1226] here?
The Dominant was “Yes (more dominant epitopes are defined by being recognized by 3 or more donors/different studies)”.

For 1174 (RARSVSPKL) [compound 1174], which Dominant is on record?
Its Dominant is “Yes (more dominant epitopes are defined by being recognized by 3 or more donors/different studies)”.

Which Dominant does the source give for 1104 (MDLFMRIFTI) [compound 1104] here?
Its Dominant is “Yes (more dominant epitopes are defined by being recognized by 3 or more donors/different studies)”.

Which Dominant does the source give for 1204 (YTNSFTRGVY) [compound 1204] here?
Its Dominant is “Yes (more dominant epitopes are defined by being recognized by 3 or more donors/different studies)”.

With 1111 (IVGVALLAVF) [compound 1111] as the substance, how does the Dominant read?
Its Dominant is “Yes (more dominant epitopes are defined by being recognized by 3 or more donors/different studies)”.

same assay, conditions: CD8S (D) Megapool, antigen S; dominant = recognized in 3 or more donors/studies

With 1507 (NQKLIANQF) [compound 1507] as the substance, how does the Dominant read?
The Dominant was “Yes (more dominant epitopes are defined by being recognized by 3 or more donors/different studies)”.

With 1496 (VASQSIIAY) [compound 1496] as the substance, how does the Dominant read?
The Dominant was “Yes (more dominant epitopes are defined by being recognized by 3 or more donors/different studies)”.

Which Dominant does the source give for 1472 (GVYFASTEK) [compound 1472] here?
Its Dominant is “Yes (more dominant epitopes are defined by being recognized by 3 or more donors/different studies)”.

Which Dominant does the source give for 1479 (LLALHRSYL) [compound 1479] here?
The Dominant was “Yes (more dominant epitopes are defined by being recognized by 3 or more donors/different studies)”.

With 1486 (KLPDDFTGCV) [compound 1486] as the substance, how does the Dominant read?
Its Dominant is “Yes (more dominant epitopes are defined by being recognized by 3 or more donors/different studies)”.

With 1517 (NLNESLIDL) [compound 1517] as the substance, how does the Dominant read?
Its Dominant is “Yes (more dominant epitopes are defined by being recognized by 3 or more donors/different studies)”.

With 1500 (TECSNLLLQY) [compound 1500] as the substance, how does the Dominant read?
The Dominant was “Yes (more dominant epitopes are defined by being recognized by 3 or more donors/different studies)”.

Which Dominant does the source give for 1470 (STQDLFLPFF) [compound 1470] here?
The Dominant was “Yes (more dominant epitopes are defined by being recognized by 3 or more donors/different studies)”.

For 1504 (MIAQYTSAL) [compound 1504], which Dominant is on record?
Its Dominant is “Yes (more dominant epitopes are defined by being recognized by 3 or more donors/different studies)”.

With 1508 (VLNDILSRL) [compound 1508] as the substance, how does the Dominant read?
The Dominant was “Yes (more dominant epitopes are defined by being recognized by 3 or more donors/different studies)”.

With 1503 (LTDEMIAQY) [compound 1503] as the substance, how does the Dominant read?
The Dominant was “Yes (more dominant epitopes are defined by being recognized by 3 or more donors/different studies)”.

Which Dominant does the source give for 1512 (HLMSFPQSA) [compound 1512] here?
The Dominant was “Yes (more dominant epitopes are defined by being recognized by 3 or more donors/different studies)”.

For 1511 (YHLMSFPQSA) [compound 1511], which Dominant is on record?
Its Dominant is “Yes (more dominant epitopes are defined by being recognized by 3 or more donors/different studies)”.

For 1475 (SSANNCTFEY) [compound 1475], which Dominant is on record?
Its Dominant is “Yes (more dominant epitopes are defined by being recognized by 3 or more donors/different studies)”.

For 1498 (FTISVTTEIL) [compound 1498], which Dominant is on record?
The Dominant was “Yes (more dominant epitopes are defined by being recognized by 3 or more donors/different studies)”.

With 1519 (KWPWYIWLGF) [compound 1519] as the substance, how does the Dominant read?
Its Dominant is “Yes (more dominant epitopes are defined by being recognized by 3 or more donors/different studies)”.

With 1469 (YTNSFTRGVY) [compound 1469] as the substance, how does the Dominant read?
Its Dominant is “Yes (more dominant epitopes are defined by being recognized by 3 or more donors/different studies)”.

Which Dominant does the source give for 1501 (LLQYGSFCT) [compound 1501] here?
Its Dominant is “Yes (more dominant epitopes are defined by being recognized by 3 or more donors/different studies)”.

same assay, conditions: CD8 epitopes; Yes = recognized by 3 or more donors/different studies

For 493 (FPRGQGVPI) [compound 493], which Dominant is on record?
The Dominant was “Yes (more dominant epitopes are defined by being recognized by 3 or more donors/different studies)”.

With 491 (NTASWFTAL) [compound 491] as the substance, how does the Dominant read?
Its Dominant is “Yes (more dominant epitopes are defined by being recognized by 3 or more donors/different studies)”.

For 497 (YYRRATRRIR) [compound 497], which Dominant is on record?
Its Dominant is “Yes (more dominant epitopes are defined by being recognized by 3 or more donors/different studies)”.

For 466 (AVILRGHLR) [compound 466], which Dominant is on record?
The Dominant was “Yes (more dominant epitopes are defined by being recognized by 3 or more donors/different studies)”.

Which Dominant does the source give for 476 (ATSRTLSYY) [compound 476] here?
The Dominant was “Yes (more dominant epitopes are defined by being recognized by 3 or more donors/different studies)”.

With 420 (SLVKPSFYV) [compound 420] as the substance, how does the Dominant read?
Its Dominant is “Yes (more dominant epitopes are defined by being recognized by 3 or more donors/different studies)”.

For 471 (TVATSRTLSYYK) [compound 471], which Dominant is on record?
Its Dominant is “Yes (more dominant epitopes are defined by being recognized by 3 or more donors/different studies)”.

For 467 (HLRIAGHHLGR) [compound 467], which Dominant is on record?
The Dominant was “Yes (more dominant epitopes are defined by being recognized by 3 or more donors/different studies)”.

With 463 (SELVIGAVIL) [compound 463] as the substance, how does the Dominant read?
The Dominant was “Yes (more dominant epitopes are defined by being recognized by 3 or more donors/different studies)”.

For 423 (YVYSRVKNL) [compound 423], which Dominant is on record?
Its Dominant is “Yes (more dominant epitopes are defined by being recognized by 3 or more donors/different studies)”.

Which Dominant does the source give for 492 (KFPRGQGVPI) [compound 492] here?
Its Dominant is “Yes (more dominant epitopes are defined by being recognized by 3 or more donors/different studies)”.

With 451 (SYFIASFRLFA) [compound 451] as the substance, how does the Dominant read?
The Dominant was “Yes (more dominant epitopes are defined by being recognized by 3 or more donors/different studies)”.

same assay, conditions: SARS-CoV-2-derived CD8 epitopes; dominant = recognized by 3 or more donors/different studies

For 1065 (MMISAGFSL) [compound 1065], which Dominant is on record?
The Dominant was “Yes (more dominant epitopes are defined by being recognized by 3 or more donors/different studies)”.

Which Dominant does the source give for 851 (TPKYKFVRI) [compound 851] here?
Its Dominant is “Yes (more dominant epitopes are defined by being recognized by 3 or more donors/different studies)”.

With 754 (YIFFASFYY) [compound 754] as the substance, how does the Dominant read?
The Dominant was “Yes (more dominant epitopes are defined by being recognized by 3 or more donors/different studies)”.

Which Dominant does the source give for 896 (SEFSSLPSY) [compound 896] here?
Its Dominant is “Yes (more dominant epitopes are defined by being recognized by 3 or more donors/different studies)”.

For 866 (SAFAMMFVK) [compound 866], which Dominant is on record?
Its Dominant is “Yes (more dominant epitopes are defined by being recognized by 3 or more donors/different studies)”.

For 833 (TFYLTNDVSFL) [compound 833], which Dominant is on record?
Its Dominant is “Yes (more dominant epitopes are defined by being recognized by 3 or more donors/different studies)”.

Which Dominant does the source give for 861 (FLNRFTTTL) [compound 861] here?
The Dominant was “Yes (more dominant epitopes are defined by being recognized by 3 or more donors/different studies)”.

With 772 (QLMCQPILLL) [compound 772] as the substance, how does the Dominant read?
The Dominant was “Yes (more dominant epitopes are defined by being recognized by 3 or more donors/different studies)”.

For 816 (SLRPDTRYVL) [compound 816], which Dominant is on record?
Its Dominant is “Yes (more dominant epitopes are defined by being recognized by 3 or more donors/different studies)”.

With 723 (ASMPTTIAK) [compound 723] as the substance, how does the Dominant read?
Its Dominant is “Yes (more dominant epitopes are defined by being recognized by 3 or more donors/different studies)”.

For 808 (FLPRVFSAV) [compound 808], which Dominant is on record?
The Dominant was “Yes (more dominant epitopes are defined by being recognized by 3 or more donors/different studies)”.

With 882 (SMWALIISV) [compound 882] as the substance, how does the Dominant read?
Its Dominant is “Yes (more dominant epitopes are defined by being recognized by 3 or more donors/different studies)”.

tested on: CD8+ T cells; assay: not given; settings: T cell type (CD4 or CD8) recognizing the SARS-CoV-2 epitope; cited from earlier work

For 1065 (MMISAGFSL) [compound 1065], which Restriction is on record?
Its Restriction is “CD8”.
